{"source": "patent US10233173B2", "about": "“Substituted 1,2,3-triazoles as NR2B-selective NMDA modulators” (JANSSEN PHARMACEUTICA NV, priority 2016, dated 2019)"}
{"target": "human GluN1/GluN2B NMDA receptors (Homo sapiens, UniProt Q05586+Q13224)", "sequence (Q13224 27-1484, other chains not shown)": "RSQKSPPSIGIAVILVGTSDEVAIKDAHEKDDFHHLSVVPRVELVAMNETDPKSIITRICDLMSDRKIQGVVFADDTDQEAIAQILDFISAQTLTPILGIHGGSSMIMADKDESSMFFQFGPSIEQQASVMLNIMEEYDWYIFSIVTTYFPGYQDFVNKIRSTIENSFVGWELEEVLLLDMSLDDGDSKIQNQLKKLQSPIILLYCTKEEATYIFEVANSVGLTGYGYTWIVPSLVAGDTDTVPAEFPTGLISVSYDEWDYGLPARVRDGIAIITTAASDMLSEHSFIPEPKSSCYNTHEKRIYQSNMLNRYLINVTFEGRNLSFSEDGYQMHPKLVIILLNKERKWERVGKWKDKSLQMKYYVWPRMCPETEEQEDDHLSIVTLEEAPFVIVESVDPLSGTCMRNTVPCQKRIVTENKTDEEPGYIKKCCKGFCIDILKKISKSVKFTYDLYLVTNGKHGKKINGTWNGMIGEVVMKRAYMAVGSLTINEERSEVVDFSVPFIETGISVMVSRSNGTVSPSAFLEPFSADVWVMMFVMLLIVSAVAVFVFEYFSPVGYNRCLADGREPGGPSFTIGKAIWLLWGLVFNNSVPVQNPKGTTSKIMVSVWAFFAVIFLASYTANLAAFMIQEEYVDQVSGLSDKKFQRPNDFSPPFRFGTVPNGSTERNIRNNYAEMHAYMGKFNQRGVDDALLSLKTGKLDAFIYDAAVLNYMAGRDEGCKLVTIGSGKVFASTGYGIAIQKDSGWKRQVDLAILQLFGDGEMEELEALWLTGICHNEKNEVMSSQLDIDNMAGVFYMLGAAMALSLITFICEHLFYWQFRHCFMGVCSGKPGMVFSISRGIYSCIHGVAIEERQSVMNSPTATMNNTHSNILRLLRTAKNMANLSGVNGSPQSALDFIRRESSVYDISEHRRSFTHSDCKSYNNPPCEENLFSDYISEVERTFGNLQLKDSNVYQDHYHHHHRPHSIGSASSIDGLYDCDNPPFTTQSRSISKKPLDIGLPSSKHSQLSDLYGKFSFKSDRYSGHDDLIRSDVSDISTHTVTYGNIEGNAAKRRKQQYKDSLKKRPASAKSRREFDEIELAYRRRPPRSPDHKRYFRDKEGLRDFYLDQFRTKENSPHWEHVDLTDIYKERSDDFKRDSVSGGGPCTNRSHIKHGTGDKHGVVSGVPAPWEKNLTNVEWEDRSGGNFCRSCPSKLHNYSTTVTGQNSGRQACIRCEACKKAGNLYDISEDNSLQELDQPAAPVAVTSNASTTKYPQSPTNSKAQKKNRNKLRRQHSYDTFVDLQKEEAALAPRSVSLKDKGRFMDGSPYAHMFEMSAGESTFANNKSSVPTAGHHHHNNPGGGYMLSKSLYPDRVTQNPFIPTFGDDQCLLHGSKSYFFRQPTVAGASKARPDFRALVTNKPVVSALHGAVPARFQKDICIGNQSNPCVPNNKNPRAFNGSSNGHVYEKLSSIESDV", "test": "Cell-based calcium flux (FLIPR) assay on cloned human NR1/NR2B ion channels expressed in mammalian cells", "details": "standard assay; glutamate at ~EC80; FLIPR calcium flux", "outline": "(§1)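 Calcium influx followed by FLIPR fluorescence after 5 min compound exposure and a further 5 min co-agonist challenge: 10 μM glycine with glutamate at ~EC80 (standard) or EC40 (HTS).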", "units": {"IC50": "µM"}}
{"compound": "Cc1nc(OCc2cn(-c3ccc(F)c(C(C)(F)F)c3)nn2)ncc1Cl", "note": "[Example 574, 5-Chloro-2-[[1-[3-(1,1-difluoroethyl)-4-fluoro-phenyl]triazol-4-yl]methoxy]-4-methyl-pyrimidine]", "IC50": 0.01}
{"compound": "Fc1ccc(-n2cc(COc3nccc(C(F)(F)F)n3)nn2)cc1C(F)F", "note": "[Example 403, 2-[[1-[3-(Difluoromethyl)-4-fluoro-phenyl]triazol-4-yl]methoxy]-4-(trifluoromethyl)pyrimidine]", "IC50": 0.199}
{"compound": "FC(F)Oc1cc(-n2cc(COc3ncc(N4CC(F)(F)C4)cn3)nn2)ccc1Cl", "note": "[Example 393, 2-((1-(4-Chloro-3-(difluoromethoxy)phenyl)-1H-1,2,3-triazol-4-yl)methoxy)-5-(3,3-difluoroazetidin-1-yl)pyrimidine]", "IC50": 0.037}
{"compound": "Cc1c(F)cccc1-n1cc(COc2ncc(C(C)(C)O)cn2)nn1", "note": "[Example 466, 2-[2-[[1-(3-Fluoro-2-methyl-phenyl)triazol-4-yl]methoxy]pyrimidin-5-yl]propan-2-ol]", "IC50": 7.01}
{"compound": "CC(F)(F)c1cc(-n2cc(COc3ncc(OC(F)F)cn3)nn2)ccc1Cl", "note": "[Example 542, 2-[[1-[4-Chloro-3-(1,1-difluoroethyl)phenyl]triazol-4-yl]methoxy]-5-(difluoromethoxy)pyrimidine]", "IC50": 0.012}
{"compound": "CC(O)c1cnc(OCc2cn(-c3ccc(F)c(C(C)(F)F)c3)nn2)nc1", "note": "(racemic) [Example 586, (R/S)-1-[2-[[1-[3-(1,1-Difluoroethyl)-4-fluoro-phenyl]triazol-4-yl]methoxy]pyrimidin-5-yl]ethanol]", "IC50": 0.014}
{"compound": "CN(C)c1ccnc(OCc2cn(-c3ccc(F)c(OC(F)F)c3)nn2)n1", "note": "[Example 505, 2-[[1-[3-(Difluoromethoxy)-4-fluoro-phenyl]triazol-4-yl]methoxy]-N,N-dimethyl-pyrimidin-4-amine]", "IC50": 0.007}
{"compound": "Fc1ccc(-n2cc(COc3nccc(COCC(F)F)n3)nn2)cc1OC(F)F", "note": "[Example 716, 4-((2,2-Difluoroethoxy)methyl)-2-((1-(3-(difluoromethoxy)-4-fluorophenyl)-1H-1,2,3-triazol-4-yl)methoxy)pyrimidine]", "IC50": 0.049}
{"compound": "OCc1cnc(OCc2cn(-c3ccc(F)c(Br)c3)nn2)nc1", "note": "[Example 616, [2-[[1-(3-Bromo-4-fluoro-phenyl)triazol-4-yl]methoxy]pyrimidin-5-yl]methanol]", "IC50": 0.03}
{"compound": "Fc1ccc(-n2cc(COc3ncc(N4CCC4)cn3)nn2)cc1C(F)F", "note": "[Example 417, 5-(Azetidin-1-yl)-2-((1-(3-(difluoromethyl)-4-fluorophenyl)-1H-1,2,3-triazol-4-yl)methoxy)pyrimidine]", "IC50": 0.006}
{"compound": "Fc1ccc(-n2cc(COc3ncc(N4CC(F)C4)cn3)nn2)cc1C(F)F", "note": "[Example 416, 2-((1-(3-(Difluoromethyl)-4-fluorophenyl)-1H-1,2,3-triazol-4-yl)methoxy)-5-(3-fluoroazetidin-1-yl)pyrimidine]", "IC50": 0.01}
{"compound": "CC(C)(O)c1cnc(OCc2cn(-c3ccc(Cl)c(C(F)F)c3)nn2)nc1", "note": "[Example 626, 2-[2-[[1-[4-Chloro-3-(difluoromethyl)phenyl]triazol-4-yl]methoxy]pyrimidin-5-yl]propan-2-ol]", "IC50": 0.067}
{"compound": "Cc1cc(OCc2cn(-c3ccc(F)c(C)c3)nn2)ncn1", "note": "[Example 462, 4-[[1-(4-Fluoro-3-methyl-phenyl)triazol-4-yl]methoxy]-6-methyl-pyrimidine]", "IC50": 3.03}
{"compound": "Fc1ccc(-n2cc(COc3cccc(C(F)(F)F)n3)nn2)cc1OC(F)F", "note": "[Example 395, 2-[[1-[3-(Difluoromethoxy)-4-fluoro-phenyl]triazol-4-yl]methoxy]-6-(trifluoromethyl)pyridine]", "IC50": 0.919}
{"compound": "OCc1ccnc(OCc2cn(-c3ccc(F)c(C(F)F)c3)nn2)n1", "note": "[Example 400, [2-[[1-[3-(Difluoromethyl)-4-fluoro-phenyl]triazol-4-yl]methoxy]pyrimidin-4-yl]methanol]", "IC50": 0.036}
{"compound": "Cc1cnc(OCc2cn(-c3cc(C)ccc3F)nn2)nc1", "note": "[Example 484, 2-[[1-(2-Fluoro-5-methyl-phenyl)triazol-4-yl]methoxy]-5-methyl-pyrimidine]", "IC50": 1}
{"compound": "COc1ccnc(OCc2cn(-c3ccc(F)c(OC(F)F)c3)nn2)n1", "note": "[Example 497, 2-[[1-[3-(Difluoromethoxy)-4-fluoro-phenyl]triazol-4-yl]methoxy]-4-methoxy-pyrimidine]", "IC50": 0.028}
{"target": "human GluN1/GluN2B NMDA receptors (Homo sapiens, UniProt Q05586+Q13224)", "test": "Cell-based calcium flux (FLIPR) assay on cloned human NR1/NR2B ion channels expressed in mammalian cells", "details": "standard assay; human GluN1/GluN2B, calcium flux (FLIPR), glutamate ~EC80", "outline": "as §1", "units": {"IC50": "µM"}}
{"compound": "COc1cc(-n2cc(COc3ncccn3)nn2)ccc1Cl", "note": "[Example 15, 2-[[1-(4-Chloro-3-methoxy-phenyl)triazol-4-yl]methoxy]pyrimidine]", "IC50": 0.699}
{"compound": "Cc1cnc(OCc2cn(-c3cccc(C(F)(F)F)c3)nn2)nc1C", "note": "[Example 290, 4,5-Dimethyl-2-[[1-[3-(trifluoromethyl)phenyl]triazol-4-yl]methoxy]pyrimidine]", "IC50": 0.007}
{"compound": "CCc1cnc(OCc2cn(-c3cccc(OC(F)F)c3)nn2)nc1", "note": "[Example 328, 2-[[1-[3-(Difluoromethoxy)phenyl]triazol-4-yl]methoxy]-5-ethyl-pyrimidine]", "IC50": 0.029}
{"compound": "Cc1cnc(OCc2cn(-c3ccc(F)c(Br)c3)nn2)nc1", "note": "[Example 16, 2-[[1-(3-Bromo-4-fluoro-phenyl)triazol-4-yl]methoxy]-5-methylpyrimidine]", "IC50": 0.001}
{"compound": "COc1ccnc(OCc2cn(-c3cccc(C(C)(F)F)c3)nn2)n1", "note": "[Example 307, 2-[[1-[3-(1,1-Difluoroethyl)phenyl]triazol-4-yl]methoxy]-4-methoxy-pyrimidine]", "IC50": 0.033}
{"compound": "CCc1cnc(NCc2cn(-c3ccc(Cl)c(C(F)F)c3)nn2)nc1", "note": "[Example 202, N-[[1-[4-Chloro-3-(difluoromethyl)phenyl]triazol-4-yl]methyl]-5-ethyl-pyrimidin-2-amine]", "IC50": 0.044}
{"compound": "CC(C)(O)c1cnc(OCc2cn(-c3ccc(F)c(C4CCC4)c3)nn2)nc1", "note": "[Example 178, 2-[2-[[1-(3-Cyclobutyl-4-fluoro-phenyl)triazol-4-yl]methoxy]pyrimidin-5-yl]propan-2-ol]", "IC50": 0.349}
{"compound": "Fc1ccc(-n2cc(COc3ncc(C(F)(F)F)cn3)nn2)cc1Br", "note": "[Example 44, 2-[[1-(3-Bromo-4-fluoro-phenyl)triazol-4-yl]methoxy]-5-(trifluoromethyl)pyrimidine]", "IC50": 0.005}
{"compound": "CCc1cnc(OCc2cn(-c3ccc(F)c(Br)c3)nn2)nc1", "note": "[Example 40, 2-[[1-(3-Bromo-4-fluoro-phenyl)triazol-4-yl]methoxy]-5-ethyl-pyrimidine]", "IC50": 0.001}
{"compound": "Cc1cnc(OCc2cn(-c3ccc4c(c3)OC(F)(F)O4)nn2)nc1C", "note": "[Example 359, 2-[[1-(2,2-Difluoro-1,3-benzodioxol-5-yl)triazol-4-yl]methoxy]-4,5-dimethyl-pyrimidine]", "IC50": 0.009}
{"compound": "FC(F)Oc1cc(-n2cc(CNc3ccccn3)nn2)ccc1Cl", "note": "[Example 2, N-((1-(4-Chloro-3-(difluoromethoxy)phenyl)-1H-1,2,3-triazol-4-yl)methyl)pyridin-2-amine]", "IC50": 0.213}
{"compound": "Fc1ccc(-n2cc(COc3ncc(N4CCC4)cn3)nn2)cc1OC(F)F", "note": "[Example 165, 5-(Azetidin-1-yl)-2-[[1-[3-(difluoromethoxy)-4-fluoro-phenyl]triazol-4-yl]methoxy]pyrimidine]", "IC50": 0.016}
{"compound": "Fc1ccc(-n2cc(COc3ccccn3)nn2)cc1C(F)F", "note": "[Example 111, 2-[[1-[3-(Difluoromethyl)-4-fluoro-phenyl]triazol-4-yl]methoxy]pyridine]", "IC50": 0.684}
{"compound": "Cc1ccnc(OCc2cn(-c3ccc(F)c(C(F)(F)F)c3)nn2)n1", "note": "[Example 83, 2-[[1-[4-Fluoro-3-(trifluoromethyl)phenyl]triazol-4-yl]methoxy]-4-methyl-pyrimidine]", "IC50": 0.02}
{"compound": "FC(F)c1cccc(-n2cc(CNc3ncc(Cl)cn3)nn2)c1", "note": "[Example 153, 5-Chloro-N-[[1-[3-(difluoromethyl)phenyl]triazol-4-yl]methyl]pyrimidin-2-amine]", "IC50": 0.216}
{"compound": "C[C@H](Oc1ncc(Cl)cn1)c1cn(-c2ccc(Cl)c(OC(F)F)c2)nn1", "note": "[Example 379, 5-Chloro-2-[(1S)-1-[1-[4-chloro-3-(difluoromethoxy)phenyl]triazol-4-yl]ethoxy]pyrimidine]", "IC50": 0.575}
{"compound": "Cc1cccc(-n2cc(COc3ncc(C(C)(C)O)cn3)nn2)c1", "note": "[Example 249, 2-[2-[[1-(m-Tolyl)triazol-4-yl]methoxy]pyrimidin-5-yl]propan-2-ol]", "IC50": 0.289}
{"compound": "Cc1cccc(-n2cc(COc3ncc(Cl)cn3)nn2)c1", "note": "[Example 246, 5-Chloro-2-[[1-(m-tolyl)triazol-4-yl]methoxy]pyrimidine]", "IC50": 0.033}
{"compound": "Cc1cccc(-n2cc(COc3ncc(C)c(N)n3)nn2)c1", "note": "[Example 254, 5-Methyl-2-[[1-(m-tolyl)triazol-4-yl]methoxy]pyrimidin-4-amine]", "IC50": 0.151}
{"compound": "FC(F)c1cc(-n2cc(COc3ncc(C(F)(F)F)cn3)nn2)ccc1Cl", "note": "[Example 45, 2-[[1-[4-Chloro-3-(difluoromethyl)phenyl]triazol-4-yl]methoxy]-5-(trifluoromethyl)pyrimidine]", "IC50": 0.004}
{"compound": "CNC(=O)c1ccnc(OCc2cn(-c3ccc(F)c(C(F)F)c3)nn2)n1", "note": "[Example 162, 2-[[1-[3-(Difluoromethyl)-4-fluoro-phenyl]triazol-4-yl]methoxy]-N-methyl-pyrimidine-4-carboxamide]", "IC50": "> 2.99"}
{"compound": "FC(F)c1cc(-n2cc(CNc3ncccn3)nn2)ccc1Cl", "note": "[Example 109, N-[[1-[4-Chloro-3-(difluoromethyl)phenyl]triazol-4-yl]methyl]pyrimidin-2-amine]", "IC50": 1.26}
{"compound": "Nc1ccnc(OCc2cn(-c3ccc(Cl)c(OC(F)F)c3)nn2)n1", "note": "[Example 382, 2-((1-(4-chloro-3-(difluoromethoxy)phenyl)-1H-1,2,3-triazol-4-yl)methoxy)pyrimidin-4-amine]", "IC50": 0.021}
{"compound": "Cn1nccc1NCc1cn(-c2ccc(F)c(OC(F)F)c2)nn1", "note": "[Example 223, N-((1-(3-(Difluoromethoxy)-4-fluorophenyl)-1H-1,2,3-triazol-4-yl)methyl)-1-methyl-1H-pyrazol-5-amine]", "IC50": 11.8}
